Results reported in US20250197374A1, “WEE1 DEGRADING COMPOUNDS AND USES THEREOF” (BRISTOL-MYERS SQUIBB COMPANY, priority 2023, published 2025).
Where two headings read alike, the source gives them in different places.

How the values were obtained:
Assay type in all cases: cell-based
[1] = test system: MKN45 cells; experiment: MKN45 cell proliferation assay (Cell-Titer-Glo, 120 hr); details: for EC50: read-out: MKN45 Cell Prolif. 120 hr EC50; for MKN45 Cell Prolif. 120 hr YMin (%): minimal percent of DMSO control observed
Outline: (§1)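 Growth inhibition was read as CellTiter-Glo luminescence after 120 h at 37 °C in RPMI/10% FBS, with 400 MKN45 or 800 MDA-MB-231 cells seeded per well. Compounds were tested in 10-point half-log series starting at 1 or 10 uM (0.1% DMSO), in triplicate for MKN45 and duplicate for MDA-MB-231. EC50 values are four-parameter fits to %DMSO control, and Ymin-obs is the minimal observed %DMSO.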

[2] = test system: MDA-MB-231 cells; experiment: MDA-MB-231 cell proliferation assay (Cell-Titer-Glo, 120 hr); details: for EC50: read-out: MDA-MB 231 Cell Prolif. 120 hr EC50; for MDA-MB 231 Cell Prolif. 120 hr YMin (%): minimal percent of DMSO control observed
Outline: as §1

[3] = molecular target: T1, WEE1 (Homo sapiens, UniProt P30291+Q96SW2); experiment: WEE1-ePL degradation assay (293T-LentiX, InCELL Hunter luminescence, 4 hr); details: for DC50: LentiX-HEK293T cells expressing WEE1-ePL, 4 hr incubation, read-out: 293T-LentiX WEE1-ePL Degradation 4 hr EC50; for 293T-LentiX WEE1-ePL Degradation 4 hr YMin (%): lower limit of fit, % of DMSO control signal remaining
T1 construct: C-terminal ePL-tagged (DiscoverX, Fremont, CA) full-length WEE1 expression construct; expressed in transfected cells; host or cells: LentiX-HEK293T (Invitrogen), lentivirally transduced; the cells also over-express GSPT1-GN
T1 sequence (P30291 whole entry): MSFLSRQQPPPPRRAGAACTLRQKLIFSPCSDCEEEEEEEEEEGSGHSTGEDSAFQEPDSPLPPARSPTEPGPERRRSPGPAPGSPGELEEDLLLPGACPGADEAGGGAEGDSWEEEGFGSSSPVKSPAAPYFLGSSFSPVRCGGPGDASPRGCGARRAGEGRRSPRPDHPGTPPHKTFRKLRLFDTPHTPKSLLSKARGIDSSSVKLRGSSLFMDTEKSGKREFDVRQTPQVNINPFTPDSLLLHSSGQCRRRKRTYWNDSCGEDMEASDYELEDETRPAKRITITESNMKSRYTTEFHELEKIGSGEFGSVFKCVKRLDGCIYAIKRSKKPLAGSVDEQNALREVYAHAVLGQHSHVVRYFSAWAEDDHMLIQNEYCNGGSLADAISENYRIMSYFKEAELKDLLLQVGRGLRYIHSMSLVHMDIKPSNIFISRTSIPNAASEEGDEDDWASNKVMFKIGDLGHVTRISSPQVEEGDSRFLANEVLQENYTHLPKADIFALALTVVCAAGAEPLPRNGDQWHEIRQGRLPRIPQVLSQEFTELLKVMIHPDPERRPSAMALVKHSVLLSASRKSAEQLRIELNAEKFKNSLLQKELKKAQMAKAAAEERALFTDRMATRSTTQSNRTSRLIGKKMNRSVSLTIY
T1 sequence (Q96SW2 whole entry): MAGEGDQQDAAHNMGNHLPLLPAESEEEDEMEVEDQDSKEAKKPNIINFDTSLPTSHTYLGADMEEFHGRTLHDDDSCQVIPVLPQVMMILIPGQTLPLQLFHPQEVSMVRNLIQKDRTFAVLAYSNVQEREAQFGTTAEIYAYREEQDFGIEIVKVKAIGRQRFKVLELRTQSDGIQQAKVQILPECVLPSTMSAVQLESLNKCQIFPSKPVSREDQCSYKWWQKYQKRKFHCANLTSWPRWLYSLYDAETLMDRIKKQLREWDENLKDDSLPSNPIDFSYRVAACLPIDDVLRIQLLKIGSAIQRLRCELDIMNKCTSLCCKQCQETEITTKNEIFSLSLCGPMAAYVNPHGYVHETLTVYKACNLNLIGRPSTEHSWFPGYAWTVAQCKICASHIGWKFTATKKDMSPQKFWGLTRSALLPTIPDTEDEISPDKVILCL
T1 sequence (Q16531 whole entry partner): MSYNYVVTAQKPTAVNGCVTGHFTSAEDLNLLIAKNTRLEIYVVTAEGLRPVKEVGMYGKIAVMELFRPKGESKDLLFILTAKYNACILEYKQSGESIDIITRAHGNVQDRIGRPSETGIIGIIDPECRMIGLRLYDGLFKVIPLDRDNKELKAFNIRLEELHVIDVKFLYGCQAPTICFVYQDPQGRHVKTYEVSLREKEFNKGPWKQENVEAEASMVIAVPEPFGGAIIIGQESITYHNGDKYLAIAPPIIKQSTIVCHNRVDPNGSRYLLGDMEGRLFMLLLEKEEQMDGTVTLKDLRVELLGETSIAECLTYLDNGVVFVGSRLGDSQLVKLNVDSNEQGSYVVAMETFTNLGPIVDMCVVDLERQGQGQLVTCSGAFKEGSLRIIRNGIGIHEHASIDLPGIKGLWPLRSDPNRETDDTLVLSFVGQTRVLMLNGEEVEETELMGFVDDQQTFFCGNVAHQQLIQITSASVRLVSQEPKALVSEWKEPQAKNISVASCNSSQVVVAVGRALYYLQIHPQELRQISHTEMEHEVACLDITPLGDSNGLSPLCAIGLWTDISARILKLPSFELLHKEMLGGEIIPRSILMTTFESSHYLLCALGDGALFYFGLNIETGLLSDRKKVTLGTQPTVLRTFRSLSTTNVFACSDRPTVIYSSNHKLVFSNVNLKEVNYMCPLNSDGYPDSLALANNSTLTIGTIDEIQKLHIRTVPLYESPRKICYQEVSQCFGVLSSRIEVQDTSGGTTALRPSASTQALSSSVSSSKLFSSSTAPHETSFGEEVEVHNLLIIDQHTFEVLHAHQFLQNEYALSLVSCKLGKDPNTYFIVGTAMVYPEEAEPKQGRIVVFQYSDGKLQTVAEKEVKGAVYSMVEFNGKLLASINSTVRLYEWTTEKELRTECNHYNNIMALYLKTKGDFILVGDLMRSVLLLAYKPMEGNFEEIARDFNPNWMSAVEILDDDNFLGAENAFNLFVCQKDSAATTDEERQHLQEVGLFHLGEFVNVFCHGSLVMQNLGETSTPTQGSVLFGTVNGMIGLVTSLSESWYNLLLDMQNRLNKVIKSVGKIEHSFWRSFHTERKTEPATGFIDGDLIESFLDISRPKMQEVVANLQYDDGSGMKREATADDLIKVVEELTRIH
Outline: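 EC50 comes from a four-parameter logistic fit of ePL luminescence (InCELL Hunter), with DMSO control defining Ymax. Compounds ran as 10-point 3-fold dilutions from 1 or 10 µM for 4 h at 37 °C. Cells were HEK293T-LentiX with ePL-tagged full-length WEE1 and over-expressed Cereblon-resistant GSPT1-GN.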

[4] = Homo sapiens, MDA-MB-231, 120 h

SMILES	EC50 ([1]; Homo sapiens, MKN-45, 120 h) [nM]	MKN45 Cell Prolif. 120 hr YMin (%) [1] [%]	EC50 [2, 4] [nM]	MDA-MB 231 Cell Prolif. 120 hr YMin (%) [2] [%]	DC50 [3] [nM]	293T-LentiX WEE1-ePL Degradation 4 hr YMin (%) [3] [%]	EC50 [1] [nM]	EC50 [2] [nM]
O=C1CC[C@H](N2Cc3cc(O[C@H]4CCN(Cc5ccc6nc([C@H]7CCO[C@]8(CCOC8)C7)ccc6c5)C4)ccc3C2=O)C(=O)N1 (relative stereo) [Example 23, rel-(3S)-3-(5-(((3S)-1-((2-(2,6-dioxaspiro[4.5]decan-9-yl)quinolin-6-yl)methyl)pyrrolidin-3-yl)oxy)-1-oxoisoindolin-2-yl)piperidine-2,6-dione]	6	11.8	82	56.9	2	33.5	–	–
CC(C)C[C@@H]1CN(Cc2cc(F)c3nc(C4CCOCC4)ccc3c2)C[C@H]1Oc1ccc2c(c1)CN([C@H]1CCC(=O)NC1=O)C2=O (relative stereo) [Example 130, (3S)-3-(5-{[(3S*,4R*)-1-{[8-fluoro-2-(oxan-4-yl)quinolin-6-yl]methyl}-4-(2-methylpropyl)pyrrolidin-3-yl]oxy}-1-oxo-2,3-dihydro-1H-isoindol-2-yl)piperidine-2,6-dione]	1	94.4	5960	84.1	6	78.0	–	–
O=C1CC[C@H](N2Cc3cc(O[C@H]4CCN(Cc5cc(F)c6nc(N7C[C@@H]8CCO[C@@H]8C7)ccc6c5)C4)ccc3C2=O)C(=O)N1 (single isomer, unassigned) [Example 81, (S)-3-(5-(((S)-1-((8-fluoro-2-((3aS*,6aS*)-hexahydro-5H-furo[2,3-c]pyrrol-5-yl)quinolin-6-yl)methyl)pyrrolidin-3-yl)oxy)-1-oxoisoindolin-2-yl)piperidine-2,6-dione]	5	15.5	64	66.9	1	32.9	–	–
O=C(O)CC(CCO)c1ccc2cc(CN3CC[C@H](Oc4ccc5c(c4)CN([C@H]4CCC(=O)NC4=O)C5=O)C3)cc(F)c2n1 (relative stereo) [Example 99, rel-3-(6-{[(3S)-3-({2-[(3S)-2,6-dioxopiperidin-3-yl]-1-oxo-2,3-dihydro-1H-isoindol-5-yl}oxy)pyrrolidin-1-yl]methyl}-8-fluoroquinolin-2-yl)-5-hydroxypentanoic acid]	282	82.9	73	78.7	75	39.0	–	–
COC[C@@H]1CN(Cc2cc(F)c3nc(C4CCC(O)CC4)ncc3c2)C[C@H]1Oc1ccc2c(c1)CN([C@H]1CCC(=O)NC1=O)C2=O (relative stereo) [Example 50, rel-(S)-3-(5-(((3S,4S)-1-((8-fluoro-2-(4-hydroxycyclohexyl)quinazolin-6-yl)methyl)-4-(methoxymethyl)pyrrolidin-3-yl)oxy)-1-oxoisoindolin-2-yl)piperidine-2,6-dione]	7	8.7	17	19.3	3	19.8	–	–
COC[C@@H]1CN(Cc2cc(F)c3nc(N4CCC(OC)C4)ccc3c2)C[C@H]1Oc1ccc2c(c1)CN([C@H]1CCC(=O)NC1=O)C2=O (single isomer, unassigned) [Example 98, (S)-3-(5-(((3S,4S)-1-((8-fluoro-2-((S*)-3-methoxypyrrolidin-1-yl)quinolin-6-yl)methyl)-4-(methoxymethyl)pyrrolidin-3-yl)oxy)-1-oxoisoindolin-2-yl)piperidine-2,6-dione]	–	9.0	–	25.1	1	29.4	1	13
COC[C@@H]1CN(Cc2cc(F)c3nc(C45CCC(O)(CC4)CC5)ccc3c2)C[C@H]1Oc1ccc2c(c1)CN([C@H]1CCC(=O)NC1=O)C2=O [Example 55, (3S)-3-(5-{[(3S,4S)-1-[(8-fluoro-2-{4-hydroxybicyclo[2.2.2]octan-1-yl}quinolin-6-yl)methyl]-4-(methoxymethyl)pyrrolidin-3-yl]oxy}-1-oxo-2,3-dihydro-1H-isoindol-2-yl)piperidine-2,6-dione]	–	10.9	16	22.6	–	27.9	–	–
COC[C@@H]1CN(Cc2cc(F)c3nc(N4C[C@H]5C[C@@H](C4)O5)ccc3c2)C[C@H]1Oc1ccc2c(c1)CN([C@H]1CCC(=O)NC1=O)C2=O [Example 47, (S)-3-(5-(((3S,4S)-1-((2-((1R,5S)-6-oxa-3-azabicyclo[3.1.1]heptan-3-yl)-8-fluoroquinolin-6-yl)methyl)-4-(methoxymethyl)pyrrolidin-3-yl)oxy)-1-oxoisoindolin-2-yl)piperidine-2,6-dione]	1	9.8	34	30.0	1	28.7	–	–
O=C1CC[C@H](N2Cc3cc(O[C@@H]4CN(Cc5cc(F)c6nc(C7CCOCC7)ccc6c5)C[C@H]4c4ccccc4)ccc3C2=O)C(=O)N1 (relative stereo) [Example 116, (S)-3-(5-(((3S*,4R*)-1-((8-fluoro-2-(tetrahydro-2H-pyran-4-yl)quinolin-6-yl)methyl)-4-phenylpyrrolidin-3-yl)oxy)-1-oxoisoindolin-2-yl)piperidine-2,6-dione]	1	83.5	2590	89.1	–	85.0	–	–
COC[C@@H]1CN(Cc2cc(F)c3nc(COC4CCOCC4)ncc3c2)C[C@H]1Oc1ccc2c(c1)CN([C@H]1CCC(=O)NC1=O)C2=O [Example 42, (3S)-3-(5-{[(3S,4S)-1-({8-fluoro-2-[(oxan-4-yloxy)methyl]quinazolin-6-yl}methyl)-4-(methoxymethyl)pyrrolidin-3-yl]oxy}-1-oxo-2,3-dihydro-1H-isoindol-2-yl)piperidine-2,6-dione]	9	12.2	122	33.0	8	31.5	–	–
COC[C@@H]1CN(Cc2cc3ccc(C4CCN(CC(F)(F)F)CC4)cc3cn2)C[C@H]1Oc1ccc2c(c1)CN([C@H]1CCC(=O)NC1=O)C2=O [Example 38, (3S)-3-(5-{[(3S,4S)-4-(methoxymethyl)-1-({7-[1-(2,2,2-trifluoroethyl)piperidin-4-yl]isoquinolin-3-yl}methyl)pyrrolidin-3-yl]oxy}-1-oxo-2,3-dihydro-1H-isoindol-2-yl)piperidine-2,6-dione]	–	9.8	19	21.6	1	28.0	–	–
COC[C@@H]1CN(Cc2cc(F)c3nc(N4CCN(C(C)=O)C5(COC5)C4)ccc3c2)C[C@H]1Oc1ccc2c(c1)CN([C@H]1CCC(=O)NC1=O)C2=O [Example 93, (3S)-3-(5-{[(3S,4S)-1-[(2-{5-acetyl-2-oxa-5,8-diazaspiro[3.5]nonan-8-yl}-8-fluoroquinolin-6-yl)methyl]-4-(methoxymethyl)pyrrolidin-3-yl]oxy}-1-oxo-2,3-dihydro-1H-isoindol-2-yl)piperidine-2,6-dione]	1	7.9	69	52.5	1	21.9	–	–
COC[C@@H]1CN(Cc2cc(F)c3nc(N4CCOC5(COC5)C4)ncc3c2)C[C@H]1Oc1ccc2c(c1)CN([C@H]1CCC(=O)NC1=O)C2=O [Example 80, (3S)-3-(5-{[(3S,4S)-1-[(2-{2,5-dioxa-8-azaspiro[3.5]nonan-8-yl}-8-fluoroquinazolin-6-yl)methyl]-4-(methoxymethyl)pyrrolidin-3-yl]oxy}-1-oxo-2,3-dihydro-1H-isoindol-2-yl)piperidine-2,6-dione]	2	10.3	42	23.5	2	29.7	–	–
CN1CC[C@]2(C[C@@H](c3ccc4cc(CN5CC[C@H](Oc6ccc7c(c6)CN([C@H]6CCC(=O)NC6=O)C7=O)C5)ccc4n3)CO2)C1 (single isomer, unassigned) [Example 4]	23	12.6	146	61.3	14	30.9	–	–
